# Experimental data from article PMC5155426, “Organic Redox Species in Aqueous Flow Batteries: Redox Potentials, Chemical Stability and Solubility” (Scientific Reports, 2016).
# “And” between values parts separate entries of the source, which are not always exact repeats. Identical values can stand only once. “Also recorded” adds a separate entry of the source. Like-named read-outs stand apart in the source and are kept apart here.
# Assays:
# [1] = Cyclic voltammetry: formal redox potential, peak current ratio, electrochemical reversibility; assay type: physicochemical
# Description: The investigated compounds were used as-purchased and without any purification. […] For each series of CVs, a freshly polished electrode was used. The CVs for soluble compounds in 1 mM concentration were recorded in a glass beaker with a customized lid in nitrogen purged solutions of three different pHs, namely pH 0 (1 M H2SO4), pH 7 (0.5 M phosphate buffer) and pH 13 (1 M NaOH). The pH of the NaOH solution is taken as 13 to account for carbonization of the solution with exposure to air. A background CV was recorded before each CV experiment to exclude background contaminations. The CVs of insoluble compounds in 1 M H2SO4, or 0.5 M phosphate buffer were recorded as follows: 6 mL of the supporting electrolyte was mixed with approximately 4 mL of acetone, and then a small amount of the quinone was added so that its concentration was around 1 mM.
# Each CV was analyzed in terms of peak potentials and peak currents. Peak currents were determined by subtracting a polynomial fit of the background from the recorded current as exemplified in Supplementary, S1. A plot of the absolute values of the peak currents to the square root of the scan rate was constructed and, when reasonable, a linear fit included to evaluate the electrochemical (Nernstian) reversibility of the electrochemical reaction. The peak current Ip for reversible reactions are given by equation (1).
# Where F is the Faraday constant, R the gas constant, T the temperature, n the number of electron transferred, A the area of the electrode, DOthe diffusion coefficient and CO^*the bulk concentration of the analyte and v the scan rate. The peak current ratio is expected to be close to one for reversible species. The formal redox potential (E^0’), which is the adjusted form of the standard redox potential, where effects of the medium is taken into account, is reported here as the midpoint potential between the two peak potentials in the CV[24]. All half-cell potentials in this work refer to the normal hydrogen electrode (VNHE).
# [2] = pKa of the central (hydro)quinone groups estimated from the Pourbaix diagram; assay type: physicochemical; settings: aqueous media, estimated from slope change in Pourbaix diagram, Fig. 5
# Description: Quinones generally undergo a reversible two-electron reduction/oxidation. The redox potential is strongly pH dependent, as the reaction may or may not involve two protons as illustrated in the scheme-of-squares mechanistic pathway in Fig. 3 [26]. At pH < pKa1, the reaction includes two protons and thus E^0’ decreases with 59 mV per pH unit (at 25 °C)[24]. At pKa1 < pH < pKa2 and pKa2 < pH only one and no protons are involved, whereby E^0’ decreases with 30 and 0 mV per pH unit, respectively. Generally, the reactions that include protons are slower and result in a lower electrochemical rate constant (k0) and may ultimately lead to higher charge-transfer resistance in the RFB. Thus, the choice of pH in the RFB environment strongly influences quinone electrochemical performance.
# Similarly to sulfonated AQs, the positions of the hydroxyl groups affect E^0’, but in acidic only to a small extent. […] The three former all have the hydroxyl groups on positions close to the quinone groups. The difference in E^0’ for these hydroxylated AQs and others may be found in the pKa values of the central (hydro)quinone groups. Those are not trivial to measure given the insolubility at lower pH values for hydroxylated AQs, but they can be estimated from the Pourbaix diagram in Fig. 5 [24][26]. For instance, in the Pourbaix diagram of AQDS(2,7), E^0’ follows the expected −59 mv/pH unit from pH 0 to pH 7 (pKa1). Then the first (hydro)quinone group deprotonates, and the slope changes to 30 mV/pH unit until pH 10 (pKa2) and E^0’ becomes pH-independent. […] Thus, if one can predict or measure reasonable values for these pKa values, it should be possible to predict which ones will have a more negative or positive E^0’ at higher pH.
# [3] = Visual inspection of dissolved samples on standing (thixotropy, phase separation); assay type: physicochemical
# Description: Dissolved samples were left to stand for 12 hours and visually inspected for thixotropy using a vortex generator. For very insoluble compounds the amount of sample was decreased to 0.01 g and the dissolution time increased up to 24 h.
# In practical RFBs thixotropy is not wanted, as the redox solutions can be kept still for long times. […] Thixotropy of AQ dyes in aqueous dispersions has been described earlier, as well as some methods to overcome the problem such as addition of polyvinylpyrrolidone to the solution[43].
# [4] = cited from earlier work; for chemical stability (in water): ref 29 (tetracyano benzoquinone), 30 (dicyano dichloro benzoquinone), 31 (tetracarboxyl para benzoquinone), 32 (duroquinone)
# [5] = Aqueous solubility estimation (OECD test #105) in 1 M supporting electrolytes
# Description: After each addition the test tube was ultrasonicated and/or shaken vigorously using a Vortex Generator for at least 10 minutes at room temperature. Then the tube was inspected visually for undissolved sample and the addition of supporting electrolyte solution continued until the sample seemed just dissolved. The volumes just before and after full dissolution are used for calculating the solubility interval (Supplementary, S4 and S5) and the solubility is estimated as the average between the two.
# [6] = TEMPOL stability in aqueous buffer; assay type: physicochemical; settings: after 30 days, uncharged state
# Description: As an alternative to quinones, the nitroxide radical TEMPOL, was tested. […] This behaviour is similar to previous studies. […] A few other nitrogen-containing redox active species (Fig. 2 and Supplementary, S7) were included.
# [7] = CV of GC electrode ground with pure anthraquinone (Pourbaix diagram); assay type: physicochemical; settings: for E0' of unsubstituted AQ: surface-attached AQ on GC electrode
# Description: Organic R edox Species in Aqueous F low Batteries: R edox Potentials, C hem ical Stab ilit y and So lub ilit y S2: Pure Anthraquinone Pourbaix diagram
# The redox potential of pure 9,10 -anthraquinone (Sigma-Aldrich, 97%) was estimated in aqueous solutions at different pH values by measuring the CV response of a GC electrode that had been freshly grinded with anthraquinone mixed with acetone to yield a surface covered/attached species. The CVs are shown in Figure 2, and it is noticed that as the pH increases, there is a significant side- reaction, and it was only possible to obtain reliable data up to pH 10. Thus, the redox potential at pH 13 is only extrapolated. The solutions were freshly prepared and were: 1 M H2SO4 f or pH 0, 0.2 M HCl/KCl buffer for pH 2, Reagecon Technical buffers for pH 4 and 7, 0 . 2 M acetate buffer f or pH 5 and Radiometer Analytical buffer (carbonate) for pH 10.
# Figure 2 CVs for the anthraquinone-grinded GC electrode at different […]
# Figure 3: The observed standard potential as a function of pH (right).
# The line represents linear regression data. Colored arrows indicates the peaks interpreted as the pure AQ peaks used for the Pourbaix […]
# [8] = pH 0 (1 M H2SO4), midpoint of CV peak potentials, about 1 mM, acetone added for insoluble compounds
# [9] = read-out: pKa1 of the (hydro)quinone groups
# [10] = read-out: pKa2 of the (hydro)quinone groups
# [11] = 1 M KCl supporting electrolyte prepared from MilliQ water, saline or isotonic, thermodynamic from solid, Solubility, 1 M KCl, room temperature
compound,measurement,setting,value
"O=C1c2ccc(S(=O)(=O)O)cc2C(=O)c2cc(S(=O)(=O)O)ccc21 [AQDS(2,7), 9,10-anthraquinone-2,7-disulfonate disodium]",Electrochemical reversibility,[1]; pH 0,Quasireversible
same,Peak current ratio,[1]; pH 0,0.7(1)
same,formal redox potential E0',[1]; [8],0.165 VNHE
same,formal redox potential E0',[1]; pH 0 (1 M H2SO4); midpoint of CV peak potentials; about 1 mM; acetone added for insoluble compounds; 7),0.165(5) VNHE
same,Electrochemical reversibility,[1]; pH 7,Quasireversible
same,Peak current ratio,[1]; pH 7,0.56(3)
same,Electrochemical reversibility,[1]; pH 13,Reversible
same,Peak current ratio,[1]; pH 13,0.96(7)
same,pKa,[2]; [9],7
same,pKa,[2]; [10],10
same,thixotropy,"[3]; all supporting electrolytes, disodium form as received",thixotropy was observed
same,Comment: behaviour of the solution upon standing,[3]; electrolyte not stated,T hixotropic behaviour
CC1=C(C)C(=O)C(C)=C(C)C1=O [duroquinone],potential,[4]; aqueous (acidic and neutral) solutions,0.5 VNHE
same,chemical stability (in water),[4],electrochemically reversible and chemically stable
"O=C1c2ccc(O)cc2C(=O)c2ccc(O)cc21 [AQDH(2,6), 2,6-dihydroxy-9,10-anthraquinone]",Peak current ratio,[1]; pH 0,0.83(4)
same,formal redox potential E0',[1]; [8],0.039(4) VNHE and 0.04 VNHE
same,Peak current ratio,[1]; pH 7,0.9(1)
same,Electrochemical reversibility,[1]; pH 13,Reversible
same,Peak current ratio,[1]; pH 13,1.1(1)
same,solubility,"[5]; 1 M H2SO4 supporting electrolyte prepared from MilliQ water, aqueous buffer, thermodynamic from solid, Solubility, 1 M H2SO4, room temperature, interval just after / before full dissolution",< 10 mM
same,solubility,[5]; [11],< 10 mM
same,pKa,[2]; [9],> 13
same,pKa,[2]; [10],> 13
N#CC1=C(C#N)C(=O)C(C#N)=C(C#N)C1=O [tetracyano benzoquinone],E0' estimated higher than that of dicyano dichloro benzoquinone,[4],0.3 V
same,chemical stability (in water),[4],Chemical instability in water
"CC1(C)CC(O)CC(C)(C)N1[O] [TEMPOL, 4-hydroxy-2,2,6,6-tetramethylpiperidine-1-oxyl]",degradation in aqueous buffer,[6],no degradation
same,Electrochemical reversibility,[1]; pH 7,reversible
O=C(O)C1=C(C(=O)O)C(=O)C(C(=O)O)=C(C(=O)O)C1=O [tetracarboxyl para benzoquinone],calculated standard potential,[4],> 1 VNHE
same,chemical stability (in water),[4],decomposes after synthesis
N#CC1=C(C#N)C(=O)C(Cl)=C(Cl)C1=O [dicyano dichloro benzoquinone],E0',[4],0.9 VNHE
same,chemical stability (in water),[4],readily reacts with water
"O=C1c2ccc(S(=O)(=O)O)cc2C(=O)c2ccc(S(=O)(=O)O)cc21 [AQDS(2,6), AQ-2,6-disulfonate]",E0',[4]; pH 0,~0.166 VNHE
"O=C1c2cccc(S(=O)(=O)[O-])c2C(=O)c2c1cccc2S(=O)(=O)[O-].[K+].[K+] [AQDS(1,8), 9,10-anthraquinone-1,8-disulfonate dipotassium]",Electrochemical reversibility,[1]; pH 0,Quasireversible
same,Peak current ratio,[1]; pH 0,1.04(7)
same,formal redox potential E0',[1]; [8],0.03 VNHE
same,formal redox potential E0',[1]; pH 0 (1 M H2SO4); midpoint of CV peak potentials; about 1 mM; acetone added for insoluble compounds; 8),0.027(4) VNHE
same,Electrochemical reversibility,[1]; pH 7,Quasireversible
same,Peak current ratio,[1]; pH 7,0.4(1)
same,Electrochemical reversibility,[1]; pH 13,Reversible
same,Peak current ratio,[1]; pH 13,1.0(3)
same,formal redox potential E0',"[1]; pH 13 (1 M NaOH), midpoint of CV peak potentials",-0.464(4) VNHE
same,"solubility compared with AQDS(2,7) and AQS(2)",[5]; sulfonated AQs,more than ten times lower solubility
same,Comment: behaviour of the solution upon standing,[3]; electrolyte not stated,Phase separation
hexahydroxy anthraquinone,experimentally obtained E0',[4]; pH 13,about −0.7 VNHE
"O=C1c2cccc(O)c2C(=O)c2c(O)cccc21 [AQDH(1,8), 1,8-dihydroxy-9,10-anthraquinone]",Electrochemical reversibility,[1]; pH 13,Reversible
same,pKa,[2]; [9],~4
same,pKa,[2]; [10],> 13
"O=C1c2ccccc2C(=O)c2c1cc(S(=O)(=O)O)c(O)c2O [AQS(2)DH, 3,4-dihydroxy-9,10-anthraquinone-2-sulfonate sodium]",Peak current ratio,[1]; pH 0,0.9(1)
same,Peak current ratio,[1]; pH 7,0.85(6)
same,Peak current ratio,[1]; pH 13,1.1(1)
same,Electrochemical reversibility,[1]; pH not specified,Quasie versib le
same,solubility,"[5]; 1 M H2SO4, room temperature, interval just after / before full dissolution",barely soluble
same,solubility,[5]; [11],< 10 mM
same,Comment: behaviour of the solution upon standing,[3]; in KOH (1 M),T hixotropic behavior; also recorded: thixotropy was observed
"O=C1c2ccccc2C(=O)c2ccccc21 [AQ, 9,10-anthraquinone]","E0' lower than that of HQ(1,4)",[7]; pH 0,about 300 mV
same,E0' of unsubstituted AQ,[7]; pH 0,0.4 VNHE
same,E0' of unsubstituted AQ,[7]; pH 7,0 VNHE
same,"E0' of unsubstituted AQ, estimated by extrapolation in Fig. 5","[7]; pH 13, reliable data only up to pH 10",~−0.4 VNHE
